Active and inactive are the calls of the source.

AC50, EC50 and IC50 data for ten compounds are collected here from ChEMBL document CHEMBL1201862, “PubChem BioAssay data set” (2004).

Assay [1] in a line: HepG2 cell cytotoxicity, dose response, cytotoxicity control, ATP luminescence, cherry-pick, set 6 (AID 1053125). The class given is functional, cell-based.
The nature of assay [2]: cells. The note with it: HEK293.
Assay [3] in a line: cytotoxicity in HPDE-C7 cells, cell-based, fluorescence, HTS (AID 430). The class given is functional. The note with it: Homo sapiens.
Assay [4] in a line: cytotoxicity in KRAS-transformed pancreatic duct cells, primary screen, cell-based, fluorescence, HTS (AID 431). It is filed as functional. The following applies: Homo sapiens.
Assay [5] is described as follows: ADAM10 inhibitors, peptide cleavage, dose response, biochemical, QFRET (AID 743254).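 Also: ADAM10 enzyme with the DM2 quenched FRET peptide as substrate; EDANS fluorescence gain as the protease cuts the substrate; inhibitor potency against ADAM10 proteolytic activity.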
In assay [6] the target is Disintegrin and metalloproteinase domain-containing protein 17 (Homo sapiens, UniProt P78536). The assay can be described thus: ADAM17 protease inhibitors, dose response, counter-screen for ADAM10 exosite inhibitor project, biochemical, quenched FRET substrate (AID 743253). In general terms: The purpose of a counterscreen is to sort out artefacts and off-target activity.

The nature of assay [7]: growth suppression of PTEN-null colon cells, dose response, cell-based, HCT116 PTEN knockout (AID 1047).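 Also: HCT116 colon tumor cells with PTEN knocked out; cells exposed to compound for 60 hours before readout; potency for loss of cell viability measured by luminescence.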 It is filed as functional.
Assay [8] can be described thus: growth suppression of beta-catenin-knockout colon cells, dose response, cell-based, HCT116, human colon tumor (AID 1045).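 Also: HCT116 colon tumor cells with beta catenin knocked out; cells exposed to compound for 60 hours.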 It is filed as functional.
Assay [9] deals with T1, Microphthalmia-associated transcription factor (Homo sapiens, UniProt O75030).
T1 sequence (O75030 whole entry): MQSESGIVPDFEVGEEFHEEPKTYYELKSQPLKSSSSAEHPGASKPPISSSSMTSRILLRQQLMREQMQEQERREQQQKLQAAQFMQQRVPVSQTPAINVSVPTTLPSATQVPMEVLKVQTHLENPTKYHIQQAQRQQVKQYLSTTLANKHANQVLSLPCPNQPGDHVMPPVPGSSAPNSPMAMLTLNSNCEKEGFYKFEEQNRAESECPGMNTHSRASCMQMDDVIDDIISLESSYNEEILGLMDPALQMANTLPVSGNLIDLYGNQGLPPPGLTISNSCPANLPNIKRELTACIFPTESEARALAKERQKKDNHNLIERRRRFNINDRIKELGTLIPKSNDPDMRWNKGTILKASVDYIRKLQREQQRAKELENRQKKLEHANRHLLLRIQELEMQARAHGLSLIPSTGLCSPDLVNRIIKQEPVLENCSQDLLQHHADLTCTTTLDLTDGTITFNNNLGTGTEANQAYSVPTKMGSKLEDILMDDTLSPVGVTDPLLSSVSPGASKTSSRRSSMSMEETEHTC
The assay can be described thus: TRPM1 promoter luciferase signal decrease, dose response, MITF inhibitor project, cell-based, SK-MEL-5, cherry-picked, set 3 (AID 493073).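 Also: SK-MEL-5 melanoma cells with luciferase driven by the MITF target TRPM1 promoter.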 It is filed as functional.

In a further assay the test system is INS1. Kind of assay: beta cell apoptosis inhibitors, cytokine rescue, dose response, luminescence, retest (AID 449756).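 Also: cell death triggered by IL-1 beta plus TNF-alpha plus IFN-gamma mixture; protective hits raise ATP signal compared with cytokine alone wells.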 It is filed as functional, cell-based. The following applies: Rattus norvegicus.
The nature of assay [10]: A375 melanoma cell viability loss, dose response, counter-screen for MITF inhibitor project, CellTiter-Glo luminescence, dry powder, set 4 (AID 624364).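 Also: A375 melanoma cells are MITF independent so this is a counter screen.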 It is filed as functional, cell-based. The note with it: A-375.
A short description of assay [11]: A375 melanoma cell cytotoxicity, dose response, counter-screen for MITF inhibitor project, CellTiter-Glo luminescence, dry powder, set 2 (AID 624489).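 Also: actives are compounds lowering A375 viability meaning general cytotoxicity.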 The class given is functional, cell-based. The note with it: A-375.
A short description of assay [12]: cells. It is filed as functional, cell-based.
Assay [13] addresses T2, Trace amine-associated receptor 1 (Homo sapiens, UniProt Q96RJ0).
T2 sequence (Q96RJ0 whole entry): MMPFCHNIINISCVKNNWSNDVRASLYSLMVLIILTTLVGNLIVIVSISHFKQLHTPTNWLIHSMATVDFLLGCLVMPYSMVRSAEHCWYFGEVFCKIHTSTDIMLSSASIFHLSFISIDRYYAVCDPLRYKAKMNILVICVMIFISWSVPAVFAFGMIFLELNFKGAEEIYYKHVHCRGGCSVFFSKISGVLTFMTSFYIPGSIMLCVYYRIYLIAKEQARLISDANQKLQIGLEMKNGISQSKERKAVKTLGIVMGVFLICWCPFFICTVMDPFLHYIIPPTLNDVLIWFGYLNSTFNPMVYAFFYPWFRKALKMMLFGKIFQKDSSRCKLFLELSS
Kind of assay: Fluorescence-based cell-based high throughput dose response assay to identify agonists of the human trace amine associated receptor 1 (TAAR1). It is filed as functional.

For assay [14], the target named is T2, Trace amine-associated receptor 1. Kind of assay: Counterscreen for agonists of the human trace amine associated receptor 1 (hTAAR1): Fluorescence-based cell-based high throughput dose response assay to identify hTAAR1 agonist that also desensitize TAAR1 receptor response. It is filed as functional.
Assay [15] is described as follows: cells. It is filed as functional, cell-based. The source holds these as a separate data set.
Another assay addresses Caspase-6 (Homo sapiens, UniProt P55212). The assay can be described thus: human caspase-6 inhibitors, dose response, biochemical, VEID-R110 fluorescence, cherry-pick (AID 720632).
Assay [16] deals with HEK293. The assay can be described thus: NOD1 signaling inhibitors, primary screen, cell-based, luminescence, uHTS (AID 1578). It is filed as functional. The following applies: Homo sapiens.
Assay [17] deals with HEK293. Kind of assay: cells. The note with it: Homo sapiens. The class given is functional, cell-based.
Assay [18] concerns HEK293. The assay can be described thus: cells. It is filed as functional, cell-based. The note with it: Homo sapiens. The source holds these as a separate data set.
Assay [19] relates to HEK293. Kind of assay: NOD2 signaling inhibitors in MDP-stimulated cells, cell-based, uHTS, luminescence (AID 2001). It is filed as functional. The following applies: Homo sapiens.
Assay [20] is described as follows: Shn3 3'UTR reporter inhibitors, dose response, cell-based, Clone20 osteoblasts, firefly luciferase, cherry-picked (AID 624132).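 Also: firefly luciferase luminescence from reporter carrying the Shn3 3'UTR in osteoblasts.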 It is filed as functional.
A short description of assay [21]: HepG2 cell cytotoxicity, dose response, cytotoxicity control for Shn3 inhibitor project, CellTiter-Glo, cherry-picked (AID 624134). The class given is functional, cell-based.
The nature of assay [22]: control 3'UTR Renilla luciferase suppression, dose response, counter-screen for Shn3 inhibitor project, cell-based, Clone20-Shn3RL, cherry-picked (AID 624133). It is filed as functional.
For assay [23], the target named is COUP transcription factor 2 (Homo sapiens, UniProt P24468). Kind of assay: Luminescence-based cell-based high throughput dose response assay to identify inhibitors of COUP-TFII (NR2F2). It is filed as functional.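 Also: HEK293 cells transiently cotransfected with COUP-TFII expression vector and reporter; luciferase reporter luminescence driven by COUP-TFII from the pX2-168 reporter plasmid.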
For a further assay, the target named is Major prion protein (Homo sapiens, UniProt P04156). It is filed as functional, cell-based.
Assay [24] in a line: cells.
The target in assay [25] is Hepatocyte nuclear factor 4-alpha (Homo sapiens, UniProt P41235). The class given is functional, cell-based.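 Also: biochemical luminescence-based dose-response counterscreen measuring inhibition of HNF4 dimerization, run alongside a screen for blockers of ABHD5–perilipin-5 interaction; split luciferase complementation of HNF4 fusion proteins in cell lysate measuring dimerization.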
The target in the next assay is Paired box protein Pax-8 (Homo sapiens, UniProt Q06710). The assay can be described thus: inhibitors of PAX8-driven TPO luciferase reporter, dose response, RMG-I cells, cherry-pick (AID 687027).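 Also: luciferase reporter driven by Pax8 target thyroperoxidase promoter measured by SteadyGlo luminescence.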 It is filed as functional, cell-based. For orientation: In a reporter assay the amount or activity of a reporter protein is the signal.
A short description of assay [26]: inhibitors of PGC1a acetylation in cells, dose response, cell-based, cherry-picked samples (AID 720514).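 Also: potency may reflect raised or lowered acetylation signal.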 The class given is functional.
In assay [27] the target is T3, Sentrin-specific protease 8 (Homo sapiens, UniProt Q96LD8).
T3 sequence (Q96LD8 whole entry): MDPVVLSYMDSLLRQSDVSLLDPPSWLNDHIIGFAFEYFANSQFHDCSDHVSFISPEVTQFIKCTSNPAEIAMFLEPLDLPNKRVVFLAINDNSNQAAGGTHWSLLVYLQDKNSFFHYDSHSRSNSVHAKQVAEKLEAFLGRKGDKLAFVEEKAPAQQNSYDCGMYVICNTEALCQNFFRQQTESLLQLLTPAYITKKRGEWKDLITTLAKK
The class given is functional.

For assay [28], the target named is T3, Sentrin-specific protease 8. It is filed as functional. The source holds these as a separate data set.
In assay [29] the target is Tyrosyl-DNA phosphodiesterase 2 (Homo sapiens, UniProt O95551). The assay can be described thus: human TDP2 enzyme inhibitors, dose response, biochemical, epi absorbance, IC50 (AID 743297).

What is called AC50 is the concentration giving half of the maximal activity seen. For `S=C(NCC1CCCO1)N1CCN(Cc2ccccc2Cl)CC1` (centres undefined), the AC50 in [1] was 38.4 µM (active); in “cells [2]”, > 24 µM (inactive).
In general, EC50 refers to the concentration that produces a half-maximal response. The term IC50 denotes the point on the concentration scale where inhibition reaches its midpoint. For `C=C(C)COc1ccc(-c2n[nH]cc2-c2ccccc2OC)c(O)c1`, the EC50 was 13.7 µM (active) in assay [3] and 11.3 µM (active) in assay [4]. Further, the results for the IC50 in [5] and in assay [6] were 10.6 µM (inactive) and > 69.5 µM (inactive), respectively.
On to `CCN1c2ccccc2NC2N=C(OC)C(c3ccccc3)C21` (centres undefined), for which the figures for the EC50 in assay [7] and in [8] were 8.12 µM (active) and 7.49 µM (active), respectively. Further, the AC50 in [9] is 7.51 µM (active); in the assay with INS1 it was 1.26 µM (active); in [10], 50.4 µM (active); in [11], 29.7 µM (active).
In the case of `O=C1C(NCCCN2CCOCC2)=C(Nc2ccccc2)C(=O)c2ccccc21`, the AC50 in assay [10] and in assay [11] was > 70 µM (inactive) in each case.
As to `Cn1cccc1CNCCc1ccc(F)cc1`, the IC50 in the assay “cells [12]” is > 29.9 µM (inactive); in assay [14] it was 20 µM (inactive). Moreover, the EC50 in assay [13] was 6.31 µM (active); in the assay “cells [15]”, > 29.9 µM (inactive).
In the case of `Cc1cccc(NC2=C(NCCO)C(=O)c3ccccc3C2=O)c1`, at Caspase-6, the AC50 was 9.36 µM (active).
For `CCN(CC)S(=O)(=O)c1cccc(NC(=O)CNc2cccc(S(=O)(=O)N3CCCC3)c2)c1`, in the assay on HEK293 [16], the EC50 is 0.56 µM (active). For the same compound, the IC50 was 2.55 µM (active) in the assay with HEK293 [17], 14.6 µM (active) with HEK293 [18], 3.47 µM (active) in the assay with HEK293 [19] and 3.33 µM (active) in [23]. In addition, the AC50 with INS1 was 3.73 µM (active); in [20], 0.317 µM (active); in [21], 1.11 µM (active); in [22], 33.8 µM (active).
With `COc1ccc(-c2nc3ccc(Br)cn3c2Cc2cccc(F)c2)cc1OC`, the results for the IC50 on Major prion protein and in “cells [24]” were 6.96 µM (active) and > 138 µM (inactive), respectively.
`C#CCN(C[C@@H]1[C@@H](OC(=O)NCC2CCCCC2)[C@@H](OC(=O)NCC2CCCCC2)Cn2c(=O)ccc(=O)n21)S(=O)(=O)c1ccc(C)cc1`: the AC50 was 2.49 µM (active) in assay [20]; 6.53 µM (active) in assay [21]; 3.96 µM (active) in [22]; 3.03 µM (active) at Paired box protein Pax-8; 1.65 µM (active) in assay [26]. Moreover, the IC50 in assay [25] was 29.3 µM (inactive).
Turning to `Cc1ccc(C(=O)Nc2c(-c3ccc(Cl)cc3)n[nH]c2O)cc1`, the values for the IC50 in assay [27], in assay [28] and in assay [29] were 39.9 µM (active), 63.5 µM (inactive) and > 128 µM (inactive), respectively.
